According to patent US20110034526A1, “Benzimidazole Compounds” (Wyeth LLC, priority 2007, published 2011):
Like-named read-outs stand apart in the source and are kept apart here.

Legend:
[1] = tested on: ABCA1 gene; assay: Quantitative analysis of ABCA1 gene regulation in THP-1 cells (real-time PCR); format: cell-based, human; conditions: read-out: EC50 ABCA1
Protocol: The compounds of formula (I) effect on the regulation of the ABCA1 gene was evaluated using the following procedure.
The THP-1 monocytic cell line (ATCC # TIB-202) was obtained from American Type Culture Collection (Manassas, Va.) and cultured in RPMI 1640 medium (Gibco, Carlsbad, Calif.) containing 10% FBS, 2 mM L-glutamine, and 55 uM beta-Mercaptoethanol (BME). […] Differentiated THP-1 cells were treated with test compounds or ligands dissolved in DMSO (Sigma, D-8779) in culture medium lacking phorbal ester. […] Unstimulated cells treated with vehicle were included as negative controls on each plate. An LXR agonist reference, N-(2,2,2-trifluoro-ethyl)-N-[4-(2,2,2-trifluoro-1-hydroxy-1-trifluoromethyl-ethyl)-phenyl]-benzenesulfonamide (Schultz, Joshua R., Genes & Development (2000), 14(22), 2831-2838), was dosed at 1.0 uM and served as a positive control. […] Results of antagonist analysis are expressed as % antagonism and IC50 (in μM).
Total cellular RNA was isolated from treated cells cultured in 96-well plates using PrepStation 6100 (Applied Biosystems, Foster City, Calif.), according to the manufacturer's recommendations. RNA was resuspended in ribonuclease-free water and stored at −70° C. prior to analysis. RNA concentrations were quantitated with RiboGreen test procedure, #R-11490 (Molecular Probes, Eugene, Oreg.).
Gene-specific mRNA quantitation was performed by real-time PCR with the Perkin Elmer Corp. chemistry on an ABI Prism 7700 Sequence detection system (Applied Biosystems, Foster City, Calif.) according to the manufacturer's instructions. Samples (50-100 ng) of total RNA were assayed in duplicate or triplicate in 50 μl reactions using one-step RT-PCR and the standard curve method to estimate specific mRNA concentrations. Sequences of gene-specific primer and probe sets were designed with Primer Express Software (Applied Biosystems, Foster City, Calif.). […] RT and PCR reactions were performed according to PE Applied Biosystem's protocol for Taqman Gold RT-PCR or Qiagen's protocol for Quantitect probe RT-PCR. Relative levels of ABCA1 mRNA are normalized using GAPDH mRNA or 18S rRNA probe/primer sets purchased commercially (Applied Biosystems, Foster City, Calif.).
Mean, standard deviation and statistical significance of duplicate evaluations of RNA samples were assessed using ANOVA, one-way analysis of variance using SAS analysis.

[2] = molecular target: T1, human LXRβ (Homo sapiens, UniProt P55055); assay: Ligand-binding test procedure for human LXRβ (3H T0901317 tracer, flash plates)
T1 construct: biotin (biotinylated); made in house; host or cells: E. coli (crude extract)
T1 sequence (P55055 1-460): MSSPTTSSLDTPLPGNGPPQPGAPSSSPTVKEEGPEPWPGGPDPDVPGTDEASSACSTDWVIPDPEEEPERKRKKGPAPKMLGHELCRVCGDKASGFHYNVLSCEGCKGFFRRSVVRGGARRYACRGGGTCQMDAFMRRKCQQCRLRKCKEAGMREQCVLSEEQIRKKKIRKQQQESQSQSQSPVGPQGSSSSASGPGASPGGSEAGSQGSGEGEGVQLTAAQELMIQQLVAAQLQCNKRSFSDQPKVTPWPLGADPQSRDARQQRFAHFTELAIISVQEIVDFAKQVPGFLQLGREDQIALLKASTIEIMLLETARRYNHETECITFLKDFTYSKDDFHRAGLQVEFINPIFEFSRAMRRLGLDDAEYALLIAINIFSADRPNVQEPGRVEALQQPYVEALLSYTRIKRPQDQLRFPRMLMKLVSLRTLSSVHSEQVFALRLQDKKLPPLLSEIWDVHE
Protocol: Receptor source: E. coli extracted from cells expressing biotinylated hLXRβ. Extract was made in a similar buffer as above, but with 50 mM TRIS.
Washed streptavidin and coated flash plates with wash buffer. Diluted receptor extract to give Bmax ˜4000 cpm and add to the wells. Wrapped the plates in aluminum foil and stored them at +4° C. overnight.
(§1) Made a dilution series in DMSO of the test ligands. Made a 5 nM solution of the radioactive tracer in buffer. Mixed 250 μl diluted tracer with 5 μl of the test ligand from each concentration of the dilution series. Washed the receptor-coated flash plates. Added 200 μl per well of the ligand/radiolabel mixture to the receptor-coated flash plates. Wrapped the plates in aluminum foil and incubate at +4° C. over night.
Aspirated wells, and washed the flashed plates. Sealed the plate. Measured the remaining radioactivity in the plate.

[3] = molecular target: T2, human LXRα (Homo sapiens, UniProt Q13133); assay: Ligand-binding test procedure for human LXRα (3H T0901317 tracer, flash plates); conditions: biotinylated hLXRα, tracer 3H T0901317
T2 construct: biotin (biotinylated); made in house; host or cells: E. coli (crude extract)
T2 sequence (Q13133 1-447): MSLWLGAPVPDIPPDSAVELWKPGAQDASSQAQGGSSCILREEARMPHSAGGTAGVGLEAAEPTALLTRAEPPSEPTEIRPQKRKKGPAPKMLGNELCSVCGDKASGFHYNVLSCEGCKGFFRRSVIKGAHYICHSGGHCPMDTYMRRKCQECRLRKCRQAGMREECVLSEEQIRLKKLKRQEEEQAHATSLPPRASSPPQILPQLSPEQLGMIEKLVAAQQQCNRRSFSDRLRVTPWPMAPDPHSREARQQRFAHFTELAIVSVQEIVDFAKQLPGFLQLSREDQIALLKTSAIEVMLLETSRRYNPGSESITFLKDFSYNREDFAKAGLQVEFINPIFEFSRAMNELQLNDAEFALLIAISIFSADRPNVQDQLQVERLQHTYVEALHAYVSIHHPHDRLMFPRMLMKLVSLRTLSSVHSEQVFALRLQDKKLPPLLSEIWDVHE
Protocol: Receptor source: E. coli extract from cells expressing biotinylated hLXRcc. Extract was made in a similar buffer as above, but with 50 mM TRIS.
Washed streptavidin and coated flash plates with wash buffer. Diluted receptor extract to give Bmax ˜4000 cpm and add to the wells. Wrapped the plates in aluminum foil and stored them at +4° C. over night.
as §1
Aspirated wells, and wash the flashed plates. Sealed the plate. Measured the remaining radioactivity in the plate.

[4] = Gene regulation by LXR (Human), differentiated THP-1 cells, 18 hrs, ABCA1 mRNA

| SMILES | EC50 [1, 4] | IC50 [2] | IC50 [3] | EC50 ([1]; Homo sapiens, THP-1, 18 h) |
| --- | --- | --- | --- | --- |
| Cc1nc2c(C(F)(F)F)cccc2n1-c1cccc(Oc2cc(F)cc(S(C)(=O)=O)c2)c1 [Example 8, 1-{3-[3-fluoro-5-(methylsulfonyl)phenoxy]phenyl}-2-methyl-4-(trifluoromethyl)-1H-benzimidazole] | 430 nM |  |  |  |
| CCCS(=O)(=O)c1cccc(Oc2cccc(-n3c(C)nc4c(C(F)(F)F)cccc43)c2)c1 [Example 10, 2-methyl-1-{3-[3-(propylsulfonyl)phenoxy]phenyl}-4-(trifluoromethyl)-1H-benzimidazole] | 620 nM |  |  |  |
| CS(=O)(=O)c1cccc(Oc2cccc(-n3c(C(F)F)nc4c(C(F)(F)F)cccc43)c2)c1 [Example 33, 2-(difluoromethyl)-1-{3-[3-(methylsulfonyl)phenoxy]phenyl}-4-(trifluoromethyl)-1H-benzimidazole] | 190 nM | 2 nM | 36 nM |  |
| CCS(=O)(=O)c1cccc(Oc2cccc(-n3c(C)nc4c(C(F)(F)F)cccc43)c2)c1 [Example 5, 1-{3-[3-(ethylsulfonyl)phenoxy]phenyl}-2-methyl-4-(trifluoromethyl)-1H-benzimidazole] | 395 nM |  |  |  |
| CCCc1nc2c(C(F)(F)F)cccc2n1-c1cccc(Oc2cccc(S(C)(=O)=O)c2)c1 [Example 27, 1-{3-[3-(methylsulfonyl)phenoxy]phenyl}-2-propyl-4-(trifluoromethyl)-1H-benzimidazole] | 22 nM | 0.9 nM | 3.9 nM |  |
| CS(=O)(=O)c1cccc(Oc2cccc(-n3cnc4c(C(F)(F)F)cccc43)c2)c1 [Example 25, 1-{3-[3-(methylsulfonyl)phenoxy]phenyl}-4-(trifluoromethyl)-1H-benzimidazole] | 907 nM |  |  |  |
| CCS(=O)(=O)c1cccc(Oc2ccc(-n3c(C(F)(F)F)nc4c(C(F)(F)F)cccc43)cc2)c1 [Example 71, 1-{4-[3-(ethylsulfonyl)phenoxy]phenyl}-2,4-bis(trifluoromethyl)-1H-benzimidazole] |  | 83 nM | 1100 nM | 290 nM |
| Cc1nc2c(Cl)cccc2n1-c1cccc(Oc2cccc(S(=O)(=O)C(F)(F)F)c2)c1 [Example 47, 4-chloro-2-methyl-1-(3-{3-[(trifluoromethyl)sulfonyl]phenoxy}phenyl)-1H-benzimidazole] | 215 nM |  |  |  |
| Cc1nc2c(C(F)(F)F)cccc2n1-c1cccc(Oc2cccc(S(=O)(=O)CCCN)c2)c1 [Example 37, 3-[(3-{3-[2-methyl-4-(trifluoromethyl)-1H-benzimidazol-1-yl]phenoxy}phenyl)sulfonyl]propan-1-amine] | 4700 nM | 41 nM | 1470 nM |  |
| COc1ccc(-n2c(C(F)(F)c3ccccc3)nc3c(C(F)(F)F)cccc32)cc1 [Example 74, 2-[difluoro(phenyl)methyl]-1-(4-methoxyphenyl)-4-(trifluoromethyl)-1H-benzimidazole] | 440 nM | 32 nM | 635 nM |  |
| Cc1nc2c(C(F)(F)F)cccc2n1-c1cccc(Oc2cccc(S(=O)(=O)CCCO)c2)c1 [Example 9, 3-[(3-{3-[2-methyl-4-(trifluoromethyl)-1H-benzimidazol-1-yl]phenoxy}-phenyl)sulfonyl]propan-1-ol] | 610 nM |  |  |  |
| Cc1nc2c(Cl)cccc2n1-c1cccc(Oc2cccc(S(C)(=O)=O)c2)c1 [Example 40, 4-chloro-2-methyl-1-{3-[3-(methylsulfonyl)phenoxy]phenyl}-1H-benzimidazole] | 315 nM |  |  |  |
| CS(=O)(=O)c1cccc(Oc2cccc(-n3c(C4CC4)nc4c(C(F)(F)F)cccc43)c2)c1 [Example 31, 2-cyclopropyl-1-{3-[3-(methylsulfonyl)phenoxy]phenyl}-4-(trifluoromethyl)-1H-benzimidazole] | 760 nM |  |  |  |
| CCS(=O)(=O)c1cc(F)cc(Oc2cccc(-n3c(C)nc4c(C(F)(F)F)cccc43)c2)c1 [Example 7, 1-{3-[3-(ethylsulfonyl)-5-fluorophenoxy]phenyl}-2-methyl-4-(trifluoromethyl)-1H-benzimidazole] | 1240 nM |  |  |  |
| Cc1nc2c(C(F)(F)F)cccc2n1-c1cccc(Oc2cccc(S(=O)(=O)C(C)C)c2)c1 [Example 6, 1-{3-[3-(isopropylsulfonyl)phenoxy]phenyl}-2-methyl-4-(trifluoromethyl)-1H-benzimidazole] | 710 nM |  |  |  |
| CCS(=O)(=O)c1cccc(Oc2cccc(-n3c(C)nc4c(Cl)cccc43)c2)c1 [Example 41, 4-chloro-1-{3-[3-(ethylsulfonyl)phenoxy]phenyl}-2-methyl-1H-benzimidazole] | 745 nM |  |  |  |
| CCc1nc2c(C(F)(F)F)cccc2n1-c1cccc(Oc2cccc(S(C)(=O)=O)c2)c1 [Example 26, 2-ethyl-1-{3-[3-(methylsulfonyl)phenoxy]phenyl}-4-(trifluoromethyl)-1H-benzimidazole] | 140 nM |  |  |  |
| CS(=O)(=O)c1cccc(Oc2cccc(-n3c(-c4ccccc4)nc4c(C(F)(F)F)cccc43)c2)c1 [Example 30, 1-{3-[3-(methylsulfonyl)phenoxy]phenyl}-2-phenyl-4-(trifluoromethyl)-1H-benzimidazole] | 160 nM |  |  |  |
| Cc1nc2c(Cl)cccc2n1-c1cc(Oc2ccc(S(C)(=O)=O)cc2)ccc1Cl [Example 61, 4-chloro-1-{2-chloro-5-[4-(methylsulfonyl)phenoxy]phenyl}-2-methyl-1H-benzimidazole] |  | 357 nM | 3000 nM |  |
| CCS(=O)(=O)c1cccc(Oc2ccc(-n3c(C)nc4c(C(F)(F)F)cccc43)c(C)c2)c1 [Example 94] |  | 122 nM | 2100 nM |  |
| Cc1nc2c(C(F)(F)F)cccc2n1-c1ccc(Oc2cccc(S(C)(=O)=O)c2)cc1Cl [Example 102, 1-{2-chloro-4-[3-(methylsulfonyl)phenoxy]phenyl}-2-methyl-4-(trifluoromethyl)-1H-benzimidazole] |  | 304 nM | 1960 nM |  |
| Cc1cc(Oc2ccc(S(C)(=O)=O)cc2)ccc1-n1cnc2c(C(F)(F)F)cccc21 [Example 98, 1-{2-methyl-4-[4-(methylsulfonyl)phenoxy]phenyl}-4-(trifluoromethyl)-1H-benzimidazole] |  | 581 nM | 5200 nM |  |
